Data on 4 compounds can be found in US20090155186A1, “Compositions and methods for treating inflammatory conditions” (SIGNUM BIOSCENCES, INC., priority 2005, published 2009).

Data set [1] has as its system TPA-induced MPO activity. The conditions noted are these: mouse, in vivo.
Experimental: These included dexamethasone, a steroid, and indomethasone, a non-steroid anti-inflammatory drug, which targets cycloxygenases. The action of AFC in this model was, therefore, compared to that of dexamethasone and indomethasone. Each of these agents were tested using the same protocols used to test AFC.
In data set [2] the test system is mouse ear. Put plainly: AFC in acetone alone, mouse ear edema (irritancy test). To be noted: topical, dose up to about 32 mg/20 μl, 5.5 hours. It counts as in vivo. The method, then: Each contralateral ear was treated with only acetone in the same manner. The mice then were returned to their cages. After 5.5 hours, mice were sacrificed and 6 mm punches were taken from each ear and weighed. Edema response was expressed as the percent increase in the treated ear's weight over the untreated (acetone, vehicle only) ear.

In a further data set the test system is TPA-induced edema. Put plainly: TPA-induced edema, murine ear acute contact irritation model. The format is in vivo, mouse. To be noted: 2 μg TPA in 20 μl acetone; AFC in acetone 15 min later; 5.5 hours. From the text: (See Carlson, R. P., et al., Modulation of mouse ear edema by cyclooxygenase and lipoxygenase inhibitors and other pharmacologic agents. Agents Actions, 1985. 17(2): 197-204; Kuehl, F. A., Jr., et al., Role of prostaglandin endoperoxide PGG2 in inflammatory processes. Nature, 1977. 265(5590): 170-3; Trancik R J, L. N., Evaluation of topical nonsteroidal anti-inflammatory agents, in Models in Dermatology, L. Maibach, Editor. 1985, Karger. pp, 35-42; and Tramposch, K. M., Skin Inflammation, in In Vivo Models of Inflammation, M. L. Morgan D W, Editor. 1999, Birkhauser Verlag. pp. 179-204.)
The standard agents for initiating inflammation were the phorbol ester, tetradecanoylphorbol acetate, (TPA) and arachidonic acid (AA). TPA produces a greater and more prolonged neutrophil infiltration response than AA (See Rao, T. S., et al., Comparative evaluation of arachidonic acid (AA)-and tetradecanoylphorbol acetate (TPA)-induced dermal inflammation. Inflammation, 1993.17(6): 72341.) TPA-induced inflammation is the preferred agent and was used for this example.
In order to assess the effects of the inventive composition on TPA-induced edema, 2 μg of TPA in 20 μl acetone was applied with the aid of a micropipetter onto both ears of each of 6 mice. The mice were returned to their cages. […]

The test system of data set [3] is TPA-induced MPO activity. Put plainly: TPA-induced neutrophil infiltration, MPO assay of mouse ears. The format is in vivo.
Experimental: MPO enzyme activity of the ears was assayed using the technique detailed by Griffiths and coworkers (1988). To conduct the assay, each ear was homogenized in 1.0 ml of cetyltrimethylammonium bromide buffer for 5 sec using a Pro 200 tissue blender (Pro Scientific, Inc., Oxford, Conn.) at setting 5. These samples then were centrifuged for 5 minutes at 15,000 rpm in a 5415 Eppendorf microcentrifuge. Triplicate 20 microliter aliquots of supernatant were added to 200 microliters of reaction mixture (1.25 ml IM Potassium Phosphate, 4.175 mg o-dianisidine dihydrochloride and 5 μl of 1% peroxide in a final volume of 25 ml). Absorbance at 450 nm then was measured at room temperature at three 60 second intervals using Bio-Kinetics Reader EL 312E (Bio-Tek Instruments). Activity of the homogenate, which was determined by a Bradford assay (BioRad Protein Assay, BioRad Laboratories, Inc. Hercules, Calif.), was expressed as units MPO per mg tissue +/−standard error.
Two micrograms (2 μg) of TPA in 20 μl of acetone was applied onto both ears of each mouse to induce neutrophil infiltration. After 15 minutes, varying concentrations of AFC in acetone were applied to the right ear of each mouse. After 24 hours, the mice were sacrificed. The ears were removed and the efficacy of AFC on neutrophil infiltration was assessed by an MPO assay and histological analysis.
The effectiveness of AFC treatment at various times before and after TPA application was assessed using MPO as a measure of neutrophil infiltration. […]
For data set [4], the system named is TPA-induced neutrophil infiltration. Put plainly: TPA-induced neutrophil infiltration, neutrophil counting assay (H&E histology). The format is in vivo, mouse. The method, then:
Neutrophil-infiltration Assay: Swiss Webster male mice (n=6) were treated with 1 μg/20 μl of TPA as described above in order to assess whether or not TPA induced neutrophil infiltration Acetone was used as a control. TPA was administered as described above. The mice were returned to their cages for 24 hrs to allow neutrophil infiltration, then sacrificed by cervical dislocation. The ears were removed immediately for punch biopsy, and punches were fixed for subsequent histological analysis and MPO enzymatic assay.
Neutrophil Counting Assay: Ear punches buffered in 10% formalin in PBS at ambient temperature for a minimum of 24 hrs. were sectioned and stained with Hematoxilin & Eosin (“H&E”). The number of neutrophils, identified by their multilobular nuclei, in 6 randomly 100× magnified fields distributed along the length of the ear were counted manually The results are expressed as the average number per field for each ear.
Two micrograms (2 μg) of TPA in 20 μl of acetone was applied onto both ears of each mouse to induce neutrophil infiltration. […] After 24 hours, the mice were sacrificed.

In another data set the test system is TPA-induced erythema. Put plainly: TPA-induced erythema in mouse ear (photograph). It counts as in vivo. To be noted: 1 μg/20 μl TPA; 1 mg/20 μl AFC after 1 hour; photo 23 hours later. The method, then: For this example, both ears of a mouse were treated with a 1 μg/20 μl dose of TPA in acetone. […] The photo was taken 23 hours later using a Nikon D70 digital camera.

The next data set deals with human skin. Put plainly: SDS patch irritation on human skin with pre-applied AFC. It counts as in vivo. To be noted: AFC 140 mM aqueous formulation pre-applied. The method, then:
An irritant was applied to the middle of the upper back of a human subject using a 0.2 ml 20% SDS solution and a Hill-Top Chamber patch with Webril pad. […] Patches 1a and 2a were removed after 2 hours, while patches 1b and 2b were removed after 2 hours and 30 minutes. High levels of irritation were visible in patch sites 2a and 2b.

In a further data set the test system is chronic irritation. Put plainly: Chronic irritation in mice by multiple TPA applications. It counts as in vivo, mouse. The conditions noted are these: AFC in acetone, contemplated result. The method, then: The effectiveness of the inventive compositions against established chronic irritation can be assayed using a modification of the technique of Stanley P L et al., Mouse skin inflammation induced by multiple topical application 12-O-tetradeconoyphorbol-13-acetate. Skin Pharmacol. 1991, 4(4):262-71. Both ears of each mouse are treated with TPA in acetone, as above, in a series of 5 applications on the mornings of days 0, 2, 4, 7, and 9. […] Punches of the ears then are taken the afternoon of the tenth day and prepared, as above, for the edema assay and the infiltration of neutrophils. Total granulocyte infiltration then is assayed by measuring MPO activity. Macrophage infiltration is determined immunocytologically using the MOMA-2 antibody. Hydrocortisone, which is known to reduce inflammatory edema granulation infiltration and microphage infiltration, can be used as a positive control.

Data set [5] concerns delayed-type hypersensitivity. Put plainly: DNFB delayed-type hypersensitivity mouse ear model. The format is in vivo. The conditions noted are these: AFC 0.5 hour before or 15 min after challenge, contemplated result. From the text: The mouse ear model, described above, can be modified to assay the effect of anti-inflammatory agents in an immune based inflammation model (See Tramposch, K. M., Skin Inflammation, in In Vivo Models of Inflammation, M. L. Morgan D W, Editor. 1999, Birkhauser Verlag. pp. 179-20 and Chapman, J. P., Z. Ruben, and G. M. Butchko, Histology of and quantitative assays for oxazolone-induced allergic contact dermatitis in mice. Am J Dermatopathol, 1986. 8(2): 130-8). In this model, a sensitizing dose of dinitrofluorobenzene (DNFB) 1-3% in acetone can be applied topically according to a modification of the method by Back et al. to the shaved bellies of mice to elicit an immune response. (See Back, O. and T. Egelrud, Topical glucocorticoids and suppression of contact sensitivity. A mouse bioassay of anti-inflammatory effects. Br J Dermatol, 1985. 112(5): 539-45 and Bailey, S. C., et al., A novel contact hypersensitivity model for rank-ordering formulated corticosteroids. Inflamm Res, 1995. 44 Suppl 2: S162-3.) Mice then are challenged on day 5 with 40 μl of 0.5-1% DNFB to each ear. […] The ears are assayed for edema or neutrophil infiltration 5 hours later. Dexamethasone is used as a positive control. Five days later, the ears are challenged topically with a dose of DNFB insufficient to produce contact irritation. Simultaneously, cell infiltration studies are initiated. […]

Data set [6] concerns the target membrane-associated polyisoprenoid methyl transferase (Homo sapiens, UniProt O60725). To be noted: background statement; cited from earlier work.
The test system of data set [7] is neutrophil, macrophage, and platelet responses. The conditions noted are these: in vitro, background statement; cited from earlier work.
The test system of data set [8] is mouse ear. Put plainly: Induction of mouse ear edema by TPA (dose response for irritant). It counts as in vivo. To be noted: of the acetone-treated ear; TPA 0.25 to 1.75 μg/20 μl in acetone, topical, 5.5 hours. How it is done: A dose response range for TPA, a compound known to induce edema, was determined. TPA produces an increase in edema (ear swelling) that reaches a maximum at 6 hours.
Increasing concentrations of TPA dissolved in acetone were applied with the aid of a micropipetter onto the right ear of each of the five 6-8 week old, male Swiss Webster mice used in this analysis. Ten microliters (10 μl) were spread evenly onto the inner and outer surfaces using the pipette tip. The mice then were returned to their cages. The contralateral ear was treated only with acetone. After 5.5 hours, the mice were sacrificed and 6 mm punches were taken from each ear and weighed. Edema response was expressed as a percent increase in the treated ear's weight over the untreated ear. The dose response curve, as well as an ED50 value, was determined using the Lichtfield method (Lichtfield J T W. F., A simplified method of evaluating dose-effect experiments, Journal of Pharmacology and Experimental Therapeutics, 1948, 96: 99-113).

Where [9] appears, read: 2 μg TPA in 20 μl acetone, AFC 15 min later, 24 hours.

Chain of membrane-associated polyisoprenoid methyl transferase (O60725 whole entry): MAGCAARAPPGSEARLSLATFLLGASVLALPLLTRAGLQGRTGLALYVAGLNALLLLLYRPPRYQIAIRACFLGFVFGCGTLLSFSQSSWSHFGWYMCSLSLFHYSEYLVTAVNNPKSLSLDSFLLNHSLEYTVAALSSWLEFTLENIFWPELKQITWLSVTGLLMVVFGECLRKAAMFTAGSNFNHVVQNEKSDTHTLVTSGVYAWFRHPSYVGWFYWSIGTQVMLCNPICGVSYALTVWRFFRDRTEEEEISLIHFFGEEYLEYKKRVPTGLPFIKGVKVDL

With `C[C@@H]1C[C@H]2[C@@H]3CCC4=CC(=O)C=C[C@]4(C)[C@@]3(F)[C@@H](O)C[C@]2(C)[C@@]1(O)C(=O)CO` [dexamethasone], the “MPO activity in the contralateral vehicle-treated ear (systemic effect)” value in the data set on TPA-induced MPO activity [1] was “increasing inhibition of MPO activity”.

As to `CC(=O)N[C@@H](CSCC=C(C)CCC=C(C)CCC=C(C)C)C(=O)O` (stereo in doubt) [AFC, N-acetyl-5-trans, trans-farnesyl-L-cysteine], the “edema response (ear punch biopsy weight) to AFC alone” value with mouse ear [2] is on record as “no effect”. In the data set with TPA-induced edema, the “ED50 for TPA-induced edema inhibition” value was “approximately 0.44 mg/20 μl” and the “maximum reduction in TPA-induced edema” value turned out to be 80%. The “effect on TPA-induced MPO activity at different application times” value in the data set on TPA-induced MPO activity [3] (1 μg/20 μl TPA, 1 mg/20 μl AFC at various times before and after TPA) is reported as “efficacy of AFC treatment prior to, simultaneous with, or after exposure of skin to TPA”. In the data set with TPA-induced MPO activity [3] (setting [9]), the “ED50 for inhibition of TPA-induced MPO activity” value worked out at 0.065 mg/20 μl and the “inhibition of TPA-induced increases in MPO activity” value is on record as > 80%. In addition, in data set [4] (1.0 mg/20 μl AFC, TPA acute contact irritation, statistically significant, paired t-test), the “reduction in dermal neutrophils (counts)” value is 80%. Besides, the “neutrophils in histology of AFC treated ear” value in data set [4] (TPA pretreated ears, 24 hours, FIG. 5) is given as “substantial reduction of neutrophils”. Moreover, the TPA-induced erythema result in the data set on TPA-induced erythema is “An effect of the AFC inventive composition on TPA-induced erythema was observed”. The “skin irritation at patch site 1b” value in the data set on human skin (20% SDS patch removed after 2 hours and 30 minutes) was “mild response”. The “skin irritation at patch site 1a” value with human skin (20% SDS patch removed after 2 hours) is “normal skin”. Further, the “chronic edema and neutrophil number” value with chronic irritation is “reduces chronic edema and neutrophil number”. Further, the “edema and neutrophil infiltration in DNFB challenge” value in data set [5] is “effective in reducing both edema and neutrophil infiltration”. Moreover, in data set [6], the “inhibition of polyisoprenoid methyl transferase” value is on record as “inhibit membrane-associated polyisoprenoid methyl transferase”. In data set [7], the “neutrophil, macrophage and platelet responses” value was “block some neutrophil, macrophage, and platelet responses in vitro”.

For `COc1ccc2c(c1)c(CC(=O)O)c(C)n2C(=O)c1ccc(Cl)cc1` [indomethasone], in the data set on TPA-induced MPO activity [1], the “MPO activity in the contralateral vehicle-treated ear (systemic effect)” value is given as “increasing inhibition of MPO activity”.

Regarding tetradecanoylphorbol acetate [TPA], the “maximum increase in ear weight (edema)” value with mouse ear [8] is given as “approximately 150%”.
